Test results published in patent publication US12637487B2 (priority 2017, dated 2026).
“Also recorded” adds a separate entry of the source.

Tests used:
virus = test: Antiviral effect of AA011 and VK021 alone; format: cell-based
[1] = at 1000 μM
[2] = test system: Hepatitis C virus (HCV type 2a, JFH1-Luc virus strain); test: MD36792 experiment against hepatitis C virus (Rluc reporter, Huh7.5.1 cells); format: cell-based
ICR mice = test: Acetic acid-induced twisting (writhing) model, analgesic effect; format: in vivo; details: for Twisting Number Mean: 1 hour before 0.8% acetic acid i.p., 10 mice; for analgesic effect: acetic acid-induced model, mice
Procedure: Experimental method: Animals were adaptively fed for 5 days, and the body weight of the mice was weighed. […] The mice assigned to MD36792 group and the positive control group were given the corresponding drugs. After 1 hour of administration, the mice in each group were intraperitoneally injected with 0.8% acetic acid (0.2 mL/head). The twisting number of the mice were observed and recorded within 15 minutes.

[3] = test system: Human Immunodeficiency Virus (HIV); test: MD36792 experiments against human immunodeficiency virus (MT-4 cell protection); format: cell-based; details: MT-4 cells, LAI virus
Procedure: • 1. […] Cell: MT4 cells. • 3. Virus: Human Immunodeficiency Virus (HIV). • 4. Experimental reagents: RPMI-1640 medium, CellTiter-Glo detection kit (Promega) and other experimental reagents.
Experimental principle: MT-4 cell protection experiments were used to detect compounds against viruses.
Experimental steps: A 3-fold diluted drug was added to a 96-well plate, which incubates the LAI virus and MT-4 cells and inoculates it into the well plate. After culture, when the virus infects the control wells, a significant CPE appears. Reagent CellTiter-Glo was added and mixed, then the chemiluminescence signal is to be detected.
The experiment set the cell control (uninfected cell control), virus control, and positive drug control (Zidovudine, AZT).

Hepatitis B virus (HBV) = test: MD36792 experiment against hepatitis B virus (HBeAg/HBsAg ELISA, HepAD38 cells); format: cell-based; details: 72 hours, from 333 μM
Ebola virus = format: cell-based
HBV patients = test: Dicycloplatin alone in hepatitis B patients; format: in vivo, human; details: 12 hepatitis B patients, 1-3 months
[4] = test system: patients with hepatitis C; test: Dicycloplatin alone in hepatitis C patients; format: in vivo, human; details: 9 patients with hepatitis C, 1-3 months
HIV-infected individuals = test system: HIV-infected individuals; design: species or system human; details: in vivo
[5] = test system: Ebola virus infected people; format: in vivo, human; details: 20 Ebola-infected patients (Africa), dicycloplatin alone i.v., 1-3 weeks
cancer patients = test: Effect of dicycloplatin on pain in cancer patients (Table 5); format: in vivo, human; details: for pain, 5th day / pain, 17th day / pain, 31st day, then stop taking: 150 mg i.v. drip once every two days; for pain, 60th-90th (without using DCP ): after stopping
Procedure: Among cancer patients, it is suitable especially to patients with advanced liver cancer, kidney cancer, bone metastases, brain metastases and bone cancer. […] Some patients stopped using dicycloplatin after a certain course of dicycloplatin treatment, and no pain occurred again.
Dose of the above cancer patients is taken once every two days, 150 mg/5% glucose aqueous solution is dripped intravenously.

tumor patients = test: Effect of dicycloplatin on tumor-induced tissue edema and inflammation; format: in vivo, human
HCV virus = test: In vitro efficacy of MD36792 and combination with AA011 and VK021 on HCV virus; format: cell-based
cells = test: Toxicity to the cells in the HCV combination study; format: cell-based; details: toxic CC50 to the cells; start concentration 200 μg/ml MD36792, 4 X dilution
[6] = at 1000 μM and 250 μM concentration
[7] = Lung cancer to bone metastasis 5 cases
[8] = Lung cancer to brain metastasis 2 cases

C[C@@]1(O)[C@H](O)[C@@H](CO)O[C@H]1n1ccc(N)nc1=O [2'CMC, reference compound]
antiviral effect (virus; positive drug, better as the dose increases): good antiviral effect

N[C@@H](CCC(=O)N[C@@H](CS)C(=O)NCC(=O)O)C(=O)O [AA011, glutathione]
antiviral effect (virus; [6]): certain antiviral effect
cytotoxicity [1]: no obvious cytotoxicity

NC(=O)c1ncn([C@@H]2O[C@H](CO)[C@@H](O)[C@H]2O)n1 [Ribavirin, reference compound]
inhibitory effect on HCV [2]: significant inhibitory effect

COc1cc2c(cc1OC)[C@@H]1Cc3ccc(OC)c(OC)c3CN1CC2 [Rotundine, reference compound]
Twisting Number Mean (ICR mice; 100 mg/kg, counted within 15 minutes): 2.8
number of writhing compared with the model group (ICR mice; 100 mg/kg, P=0.000): statistically significantly suppressed
analgesic effect (ICR mice): significant analgesic effects

O=C1O[C@H]([C@@H](O)CO)C(O)=C1O [VK021, vitamin C]
antiviral effect (virus; [6]): certain antiviral effect

Cc1cn([C@H]2C[C@H](N=[N+]=[N-])[C@@H](CO)O2)c(=O)[nH]c1=O [zidovudine, Zidovudine, reference compound]
inhibitory effect on HIV infection [3]: significant inhibitory effect

Dicycloplatin [MD36792]
inhibitory effect on HCV [2]: no inhibitory effect
EC50 ([2]; 72 hours, read-out: EC50 (50% inhibition) of HCV): 121 µM
inhibitory effect on the expression of HBeAg (e antigen) of HBV (Hepatitis B virus (HBV)): no inhibitory effect
inhibitory effect on the expression of HBsAg (surface antigen) of HBV (Hepatitis B virus (HBV)): no inhibitory effect
inhibitory effect on HIV infection [3]: no inhibitory effect
inhibitory effect on Ebola virus infection (Ebola virus): no inhibitory effect
virus index (HBV patients; dicycloplatin alone 150 mg once every two days (i.v. drip or oral)): None of the patients showed a downward trend
liver function (HBV patients; dicycloplatin alone): did not improve
virus index ([4]; dicycloplatin alone 150 mg once every two days): None of the patients showed a downward trend
liver function ([4]; dicycloplatin alone): did not improve
liver function (HIV-infected individuals): did not improve
viral index (HIV-infected individuals; po): none showed a downward trend
control or remission [5]: without any control or remission
virus index [5]: None of the patients showed a downward trend
pain, 5th day (cancer patients; Bone cancer 3 cases): Pain gone
pain, 17th day (cancer patients; Bone cancer 3 cases): No pain
pain, 31st day, then stop taking (cancer patients; Bone cancer 3 cases): No pain
pain, 60th-90th (without using DCP ) (cancer patients; Bone cancer 3 cases): No pain
pain, 5th day (cancer patients; Kidney cancer 1 case): Pain relieved
pain, 17th day (cancer patients; Kidney cancer 1 case): Pain gone
pain, 31st day, then stop taking (cancer patients; Kidney cancer 1 case): No pain
pain, 60th-90th (without using DCP ) (cancer patients; Kidney cancer 1 case): No pain
pain, 5th day (cancer patients; Liver cancer 5 cases): Pain gone
pain, 17th day (cancer patients; Liver cancer 5 cases): No pain
pain, 31st day, then stop taking (cancer patients; Liver cancer 5 cases): No pain
pain, 60th-90th (without using DCP ) (cancer patients; Liver cancer 5 cases): No pain
pain, 5th day (cancer patients; [7]): Pain gone
pain, 17th day (cancer patients; [7]): No pain
pain, 31st day, then stop taking (cancer patients; [7]): No pain
pain, 60th-90th (without using DCP ) (cancer patients; [7]): No pain
pain, 5th day (cancer patients; [8]): Pain gone
pain, 17th day (cancer patients; [8]): No pain
pain, 31st day, then stop taking (cancer patients; [8]): No pain
pain, 60th-90th (without using DCP ) (cancer patients; [8]): No pain
treatment of pain caused by cancer (cancer patients; cancer patients, dicycloplatin injection or oral as the only treatment): significant effect; also recorded: significant efficacy
hepatic tissue edema (tumor patients; liver cancer patients, infusion or oral administration for a period of time): significantly disappeared or reduced
tissue edema in the brain caused by cancer metastasis (tumor patients; lung cancer patients with brain metastases, oral or injection, one to two weeks): basically eliminated
SI (selection index of the antiviral effect) (HCV virus): 4.44
EC50 (HCV virus; start concentration 200 μg/ml MD36792, 4 X dilution): 15.62 µg/mL
CC50 (cells): 69.4 µg/mL
dose relation of analgesic effects (ICR mice; 10, 20, 40 mg/kg): dose-independent
Twisting Number Mean (ICR mice; High dose 40 mg/kg, within 15 minutes): 8.7
Twisting Number Mean (ICR mice; Low dose 10 mg/kg, within 15 minutes): 15.2
Twisting Number Mean (ICR mice; Middle dose 20 mg/kg, within 15 minutes): 14.8
analgesic effect (ICR mice): significant analgesic effects
analgesic effect (ICR mice; listed as dicycloplatin): significant analgesic effect
number of writhing compared with the model group (ICR mice; high-dose group (40 mg/kg), P=0.009): statistically significantly suppressed
